According to patent US5140102A, “Pentadecapeptide, guanylin, which stimulates intestinal guanylate cyclase” (Monsanto Company, priority 1991, dated 1992):
Positions of bridges follow the written chain, without caps; N, C: chain ends. Residues, ends and D or L forms follow the SMILES beside them.

How the values were obtained:
[1] = target: T1, intestinal guanylate cyclase (Homo sapiens, UniProt P25092); experiment: Cyclic GMP determination in T84 cells (bioassay); assay type: cell-based
T1 construct: Monolayers of T84 cells in 24-well plates were washed twice; host or cells: T84 human colon carcinoma cells
T1 sequence (P25092 24-1073): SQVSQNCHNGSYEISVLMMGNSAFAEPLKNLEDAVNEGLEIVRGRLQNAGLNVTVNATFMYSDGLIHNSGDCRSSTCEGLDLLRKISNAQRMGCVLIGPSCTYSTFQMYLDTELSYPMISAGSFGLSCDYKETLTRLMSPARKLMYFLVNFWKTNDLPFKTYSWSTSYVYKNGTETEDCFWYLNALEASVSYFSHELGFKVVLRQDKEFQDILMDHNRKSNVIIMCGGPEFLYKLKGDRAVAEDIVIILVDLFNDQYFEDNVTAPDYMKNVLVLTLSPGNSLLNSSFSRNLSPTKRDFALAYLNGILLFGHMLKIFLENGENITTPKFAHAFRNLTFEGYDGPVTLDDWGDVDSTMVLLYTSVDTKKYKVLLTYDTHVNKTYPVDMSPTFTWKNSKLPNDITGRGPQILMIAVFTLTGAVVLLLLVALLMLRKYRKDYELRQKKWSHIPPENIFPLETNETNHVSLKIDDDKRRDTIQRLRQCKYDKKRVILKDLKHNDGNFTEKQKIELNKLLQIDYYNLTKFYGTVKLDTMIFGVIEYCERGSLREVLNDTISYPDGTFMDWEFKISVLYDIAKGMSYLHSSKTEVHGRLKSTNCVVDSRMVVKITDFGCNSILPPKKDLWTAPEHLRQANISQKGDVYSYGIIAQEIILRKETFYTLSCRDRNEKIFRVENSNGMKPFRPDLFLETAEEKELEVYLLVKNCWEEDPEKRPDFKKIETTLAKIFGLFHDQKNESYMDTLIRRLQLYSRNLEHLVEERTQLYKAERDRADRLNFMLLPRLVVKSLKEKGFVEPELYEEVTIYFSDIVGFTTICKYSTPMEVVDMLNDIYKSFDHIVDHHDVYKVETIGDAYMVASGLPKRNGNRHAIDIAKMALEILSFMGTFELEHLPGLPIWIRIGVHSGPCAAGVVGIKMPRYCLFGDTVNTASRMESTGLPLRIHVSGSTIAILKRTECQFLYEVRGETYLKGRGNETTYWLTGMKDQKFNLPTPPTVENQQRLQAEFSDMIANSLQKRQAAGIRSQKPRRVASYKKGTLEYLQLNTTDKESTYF

proximal colon = details: read-out: EC50 for increase in Isc (X±S.E.); mucosal (luminal) addition, rat proximal colon, n=4 animals

## O[C@H](CS)[C@H](O)CS (racemic) [DTT, dithiothreitol]
[1]; T84 cells treated with 10 μM
  effect on responsiveness of the cells: failed to affect their responsiveness

## CC[C@H](C)[C@@H]1NC(=O)[C@H](CCCNC(=N)N)NC(=O)[C@H](CC(=O)O)NC(=O)[C@H](CCSC)NC(=O)[C@H](CCCNC(=N)N)NC(=O)CNC(=O)CNC(=O)[C@H](Cc2ccccc2)NC(=O)[C@@H](NC(=O)[C@H](CO)NC(=O)[C@H](CO)NC(=O)[C@H](CCCNC(=N)N)NC(=O)[C@H](CCCNC(=N)N)NC(=O)[C@H](CC(C)C)NC(=O)[C@@H](N)CO)CSSC[C@@H](C(=O)N[C@@H](CC(N)=O)C(=O)N[C@@H](CO)C(=O)N[C@@H](Cc2ccccc2)C(=O)N[C@@H](CCCNC(=N)N)C(=O)N[C@@H](Cc2ccc(O)cc2)C(=O)O)NC(=O)CNC(=O)[C@H](CC(C)C)NC(=O)CNC(=O)[C@H](CO)NC(=O)[C@H](CCC(N)=O)NC(=O)[C@H](C)NC(=O)CNC1=O [atrial natriuretic peptide]
[1]
  effect on cyclic GMP levels: not detected

## CC[C@H](C)[C@@H]1NC(=O)[C@H](CCC(=O)O)NC(=O)[C@@H](NC(=O)[C@@H](NC(=O)[C@H](CC(N)=O)NC(=O)[C@@H]2CCCN2)[C@@H](C)O)CSSC[C@@H]2NC(=O)[C@H](C)NC(=O)[C@H](C)NC(=O)[C@H](Cc3ccc(O)cc3)NC(=O)[C@H](C)NC(=O)[C@H](CSSC[C@@H](C(=O)O)NC(=O)CNC(=O)[C@H]([C@@H](C)O)NC2=O)NC1=O [guanylin] (H-PNTCEICAYAACTGC-OH; disulfide 4-12, 7-15)
Proximal colon
  EC50: 0.162 ± 0.026 µM
